Source: patent US8044079B2, “Substituted oxindole derivatives, medicaments containing said derivatives and use thereof” (Abbott GmbH & Co. KG, priority 2005, dated 2011)
pKi: −log10 of the molar value.

Biological target: T1, human vasopressin V1b receptor (Homo sapiens, UniProt P47901)
T1 construct: expressed in transfected cells; host or cells: CHO-K1 (cell line hV1b_3H2_CHO), membrane preparation
T1 sequence (P47901 1-424): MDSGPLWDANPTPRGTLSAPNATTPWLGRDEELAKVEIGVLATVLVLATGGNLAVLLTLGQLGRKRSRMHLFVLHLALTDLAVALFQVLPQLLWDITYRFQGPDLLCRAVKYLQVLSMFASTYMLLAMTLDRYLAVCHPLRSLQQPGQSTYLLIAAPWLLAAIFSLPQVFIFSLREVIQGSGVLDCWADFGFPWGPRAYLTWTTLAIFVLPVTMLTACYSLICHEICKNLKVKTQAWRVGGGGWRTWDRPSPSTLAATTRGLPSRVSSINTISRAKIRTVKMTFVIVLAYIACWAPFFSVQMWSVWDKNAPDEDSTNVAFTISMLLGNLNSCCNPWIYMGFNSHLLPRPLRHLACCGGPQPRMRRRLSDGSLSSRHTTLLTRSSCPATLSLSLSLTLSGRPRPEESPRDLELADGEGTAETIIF
Experiment: Vasopressin V1b receptor binding test
Details: membranes of CHO-K1 cells with human V1b receptor, displacement of 1.5 nM 3H-AVP; for compounds with more than one stereogenic center the diastereomer with greater affinity
Summary of the method: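 Affinity constants (Ki) came from nonlinear regression of triplicate scintillation counts after filtration separated bound from free radioligand. Compounds competed at human V1b membranes for 60 min, room temperature, in pH 7.4 tris/MgCl2/BSA buffer with 2% DMSO; 1 μM AVP defined nonspecific binding.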

| Compound | pKi |
| --- | --- |
| COc1ccc(S(=O)(=O)N2C(=O)C(c3cc(CN4CCOCC4)ccc3OC)(N3CCC[C@H]3c3ncco3)c3cc(C#N)ccc32)cc1 (stereo partly drawn) [Example 58, 5-Cyano-1-(4-methoxybenzenesulfonyl)-3-(2-methoxy-5-morpholin-4-ylmethylphenyl)-3-((S)-2-oxazol-2-yl-pyrrolidin-1-yl)-1,3-dihydroindol-2-one] | 7.00 to 8.00 |
| COc1ccc(S(=O)(=O)N2C(=O)C(c3cc(CN4CCCC4)ccc3OC)(N3CCC[C@H]3c3ncco3)c3cc(C#N)ccc32)cc1 (stereo partly drawn) [Example 60, 5-Cyano-1-(4-methoxybenzenesulfonyl)-3-(2-methoxy-5-pyrrolidin-1-ylmethylphenyl)-3-((S)-2-oxazol-2-yl-pyrrolidin-1-yl)-1,3-dihydroindol-2-one] | 7.00 to 8.00 |
| COc1ccc(S(=O)(=O)N2C(=O)C(c3cc(CN4CCCCC4)ccc3OC)(N3CCC[C@H]3c3ncco3)c3cc(C#N)ccc32)cc1 (stereo partly drawn) [Example 61, 5-Cyano-1-(4-methoxybenzenesulfonyl)-3-(2-methoxy-5-piperidin-1-ylmethylphenyl)-3-((S)-2-oxazol-2-yl-pyrrolidin-1-yl)-1,3-dihydroindol-2-one] | 7.00 to 8.00 |
| CNCc1ccc(OC)c(C2(N3CCC[C@H]3c3ncco3)C(=O)N(S(=O)(=O)c3ccc(OC)cc3)c3cc(Cl)c(Cl)cc32)c1 (stereo partly drawn) [Example 63, 5,6-Dichloro-1-(4-methoxybenzenesulfonyl)-3-(2-methoxy-5-methylaminomethylphenyl)-3-((S)-2-oxazol-2-yl-pyrrolidin-1-yl)-1,3-dihydroindol-2-one] | 7.00 to 8.00 |
| CCNCc1ccc(OC)c(C2(N3CCC[C@H]3c3ncco3)C(=O)N(S(=O)(=O)c3ccc(OC)cc3)c3cc(Cl)c(Cl)cc32)c1 (stereo partly drawn) [Example 65, 5,6-Dichloro-3-(5-ethylaminomethyl-2-methoxyphenyl)-1-(4-methoxybenzenesulfonyl)-3-((S)-2-oxazol-2-yl-pyrrolidin-1-yl)-1,3-dihydroindol-2-one] | 7.00 to 8.00 |
| CCCNCc1ccc(OC)c(C2(N3CCC[C@H]3c3ncco3)C(=O)N(S(=O)(=O)c3ccc(OC)cc3)c3cc(Cl)c(Cl)cc32)c1 (stereo partly drawn) [Example 68, 5,6-Dichloro-1-(4-methoxybenzenesulfonyl)-3-(2-methoxy-5-propylaminomethylphenyl)-3-((S)-2-oxazol-2-yl-pyrrolidin-1-yl)-1,3-dihydroindol-2-one] | 7.00 to 8.00 |
| COc1ccc(S(=O)(=O)N2C(=O)C(c3cc(CNC(C)C)ccc3OC)(N3CCC[C@H]3c3ncco3)c3cc(Cl)c(Cl)cc32)cc1 (stereo partly drawn) [Example 70, 5,6-Dichloro-3-[5-(isopropylaminomethyl)-2-methoxyphenyl]-1-(4-methoxybenzenesulfonyl)-3-((S)-2-oxazol-2-yl-pyrrolidin-1-yl)-1,3-dihydroindol-2-one] | 7.00 to 8.00 |
| CCOc1ccc(S(=O)(=O)N2C(=O)C(c3cc(CN4CCN(C)CC4)ccc3OC)(N3CCC[C@H]3c3ncco3)c3cc(Cl)ccc32)cc1 (stereo partly drawn) [Example 80, 5-Chloro-1-(4-ethoxybenzenesulfonyl)-3-[2-methoxy-5-(4-methylpiperazin-1-ylmethyl)phenyl]-3-((S)-2-oxazol-2-yl-pyrrolidin-1-yl)-1,3-dihydroindol-2-one] | 7.00 to 8.00 |
| COc1ccc(CN2CCN(C)CC2)cc1C1(N2CCC[C@H]2c2ncco2)C(=O)N(S(=O)(=O)c2ccc(C#N)cc2)c2ccc(Cl)cc21 (stereo partly drawn) [Example 81, 5-Chloro-1-(4-cyanobenzenesulfonyl)-3-[2-methoxy-5-(4-methylpiperazin-1-ylmethyl)phenyl]-3-((S)-2-oxazol-2-yl-pyrrolidin-1-yl)-1,3-dihydroindol-2-one] | 7.00 to 8.00 |
| CCc1ccc(S(=O)(=O)N2C(=O)C(c3cc(CN4CCN(C)CC4)ccc3OC)(N3CCC[C@H]3c3ncco3)c3cc(Cl)ccc32)cc1 (stereo partly drawn) [Example 85, 5-Chloro-1-(4-ethylbenzenesulfonyl)-3-[2-methoxy-5-(4-methylpiperazin-1-ylmethyl)phenyl]-3-((S)-2-oxazol-2-yl-pyrrolidin-1-yl)-1,3-dihydroindol-2-one] | 7.00 to 8.00 |
| COc1ccc(S(=O)(=O)N2C(=O)C(c3cc(CN4CCN(C)CC4)ccc3OC)(N3CCC[C@H]3c3ncco3)c3cc(Cl)ccc32)cc1F (stereo partly drawn) [Example 87, 5-Chloro-1-(3-fluoro-4-methoxybenzenesulfonyl)-3-[2-methoxy-5-(4-methylpiperazin-1-ylmethyl)phenyl]-3-((S)-2-oxazol-2-yl-pyrrolidin-1-yl)-1,3-dihydroindol-2-one] | 7.00 to 8.00 |
| CCN1CCN(Cc2ccc(OC)c(C3(N4CCC[C@H]4c4ncco4)C(=O)N(S(=O)(=O)c4ccc(OC)cc4)c4ccc(Cl)cc43)c2)CC1 (stereo partly drawn) [Example 88, 5-Chloro-3-[5-(4-ethylpiperazin-1-ylmethyl)-2-methoxyphenyl]-1-(4-methoxybenzenesulfonyl)-3-((S)-2-oxazol-2-yl-pyrrolidin-1-yl)-1,3-dihydroindol-2-one] | > 8.00 |
| COc1ccc(S(=O)(=O)N2C(=O)C(c3cc(CN4CCN(C(C)=O)CC4)ccc3OC)(N3CCC[C@H]3c3ncco3)c3cc(Cl)ccc32)cc1 (stereo partly drawn) [Example 90, 3-[5-(4-Acetylpiperazin-1-ylmethyl)-2-methoxyphenyl]-5-chloro-1-(4-methoxybenzenesulfonyl)-3-((S)-2-oxazol-2-yl-pyrrolidin-1-yl)-1,3-dihydroindol-2-one] | 7.00 to 8.00 |
| COc1ccc(S(=O)(=O)N2C(=O)C(c3cc(CN4CCCN(C)CC4)ccc3OC)(N3CCC[C@H]3c3ncco3)c3cc(Cl)ccc32)cc1 (stereo partly drawn) [Example 91, 5-Chloro-1-(4-methoxybenzenesulfonyl)-3-[2-methoxy-5-(4-methyl-[1,4]diazepan-1-ylmethyl)phenyl]-3-((S)-2-oxazol-2-yl-pyrrolidin-1-yl)-1,3-dihydroindol-2-one] | > 8.00 |

Second part, the molecule after the results:

| pKi | Compound |
| --- | --- |
| 7.00 to 8.00 | COc1ccc(S(=O)(=O)N2C(=O)C(c3cc(CN(C)C)ccc3OC)(N3CCC[C@H]3c3ncco3)c3cc(Cl)c(Cl)cc32)cc1 (stereo partly drawn) [Example 64, 5,6-Dichloro-3-(5-dimethylaminomethyl-2-methoxyphenyl)-1-(4-methoxybenzenesulfonyl)-3-((S)-2-oxazol-2-yl-pyrrolidin-1-yl)-1,3-dihydroindol-2-one] |
| 7.00 to 8.00 | COc1ccc(S(=O)(=O)N2C(=O)C(c3cc(CN4CCN(C)CC4)ccc3OC)(N3CCC[C@H]3c3ncco3)c3cc(Cl)c(Cl)cc32)cc1 (stereo partly drawn) [Example 74, 5,6-Dichloro-1-(4-methoxybenzenesulfonyl)-3-[2-methoxy-5-(4-methylpiperazin-1-ylmethyl)phenyl]-3-((S)-2-oxazol-2-yl-pyrrolidin-1-yl)-1,3-dihydroindol-2-one] |
| 7.00 to 8.00 | COc1ccc(S(=O)(=O)N2C(=O)C(c3cc(CN4CCNCC4)ccc3OC)(N3CCC[C@H]3c3ncco3)c3cc(Cl)c(Cl)cc32)cc1 (stereo partly drawn) [Example 75, 5,6-Dichloro-1-(4-methoxybenzenesulfonyl)-3-(2-methoxy-5-piperazin-1-ylmethylphenyl)-3-((S)-2-oxazol-2-yl-pyrrolidin-1-yl)-1,3-dihydroindol-2-one] |
| 7.00 to 8.00 | COc1ccc(S(=O)(=O)N2C(=O)C(c3cc(CN4CCCC4)ccc3OC)(N3CCC[C@H]3c3ncco3)c3cc(Cl)c(Cl)cc32)cc1 (stereo partly drawn) [Example 78, 5,6-Dichloro-1-(4-methoxybenzenesulfonyl)-3-(2-methoxy-5-pyrrolidin-1-ylmethylphenyl)-3-((S)-2-oxazol-2-yl-pyrrolidin-1-yl)-1,3-dihydroindol-2-one] |
| 6.00 to 7.00 | COc1ccc(CN2CCN(C)CC2)cc1C1(N2CCC[C@H]2c2ncco2)C(=O)N(S(=O)(=O)c2ccc(F)cc2)c2ccc(Cl)cc21 (stereo partly drawn) [Example 82, 5-Chloro-1-(4-fluorobenzenesulfonyl)-3-[2-methoxy-5-(4-methylpiperazin-1-ylmethyl)phenyl]-3-((S)-2-oxazol-2-yl-pyrrolidin-1-yl)-1,3-dihydroindol-2-one] |
| 6.00 to 7.00 | COc1ccc(CN2CCN(C)CC2)cc1C1(N2CCC[C@H]2c2ncco2)C(=O)N(S(=O)(=O)c2ccccc2)c2ccc(Cl)cc21 (stereo partly drawn) [Example 84, 1-(Benzenesulfonyl)-5-chloro-3-[2-methoxy-5-(4-methylpiperazin-1-ylmethyl)phenyl]-3-((S)-2-oxazol-2-yl-pyrrolidin-1-yl)-1,3-dihydroindol-2-one] |
| 7.00 to 8.00 | COc1ccc(S(=O)(=O)N2C(=O)C(c3cc(CN4CCN(C)CC4)ccc3OC)(N3CCC[C@H]3c3ncco3)c3cc(Cl)ccc32)c(OC)c1 (stereo partly drawn) [Example 86, 5-Chloro-1-(2,4-dimethoxybenzenesulfonyl)-3-[2-methoxy-5-(4-methylpiperazin-1-ylmethyl)phenyl]-3-((S)-2-oxazol-2-yl-pyrrolidin-1-yl)-1,3-dihydroindol-2-one] |
| > 8.00 | COc1ccc(S(=O)(=O)N2C(=O)C(c3cc(CN4CCN(C(C)C)CC4)ccc3OC)(N3CCC[C@H]3c3ncco3)c3cc(Cl)ccc32)cc1 (stereo partly drawn) [Example 89, 5-Chloro-3-[5-(4-isopropylpiperazin-1-ylmethyl)-2-methoxyphenyl]-1-(4-methoxybenzenesulfonyl)-3-((S)-2-oxazol-2-yl-pyrrolidin-1-yl)-1,3-dihydroindol-2-one] |
| > 8.00 | COc1ccc(S(=O)(=O)N2C(=O)C(c3cc(CN4CCN(CCO)CC4)ccc3OC)(N3CCC[C@H]3c3ncco3)c3cc(Cl)ccc32)cc1 (stereo partly drawn) [Example 92, 5-Chloro-3-{5-[4-(2-hydroxyethyl)piperazin-1-ylmethyl]-2-methoxyphenyl}-1-(4-methoxybenzenesulfonyl)-3-((S)-2-oxazol-2-yl-pyrrolidin-1-yl)-1,3-dihydroindol-2-one] |
